Source: patent US8568987B2, “Chemotaxis diagnostic” (Glycotope Biotechnology GmbH, priority 2000, dated 2013)

Assays:
[1] = tested on: neutrophilic granulocytes (LECAM-1 surface expression); experiment: Granulocyte chemotaxis test from leukocyte-rich plasma: LECAM-1 surface expression by flow-through cytometry; format: cell-based, human; conditions: 5×10^−8 M fMLP vs negative control containing PBS; FIG. 3A/3B
Method: (§1) 1 ml of Ficoll (Ficoll separation medium, from Seromed, order No. L6113 (endotoxin-low)) is initially introduced in an Eppendorf tube and 1 ml of fresh (preferably not older than 8 hours) heparinized whole blood (endotoxin-low heparin) is carefully overlaid at room temperature. The mixture is allowed to stand at room temperature until a marked phase separation can be observed. After a spontaneous sedimentation, normally lasting for about 40 minutes at room temperature, the leukocytes and platelets remain above the Ficoll phase while the erythrocytes have sedimented to the bottom. The sinking of the erythrocytes occurs quite suddenly after from approx. 30 to 40 minutes. […]
(§2) 20 μl of LDS (laser dye LDS 751, from Exiton or Styryl 8, from Lambda Physik, Göttingen; for excluding the erythrocytes, 1 mg/ml, prediluted 1:50 in PBS) are added to the solution. […] The measurement is stopped after in each case 1000 or 2000 latex particles have been recorded, such that approx. 5000-15 000 neutrophils have been counted. […] The sheath fluid employed is FACS Flow (from Becton Dickinson, order No. 342003) or another carrier fluid having a low intrinsic fluorescence. […] The calibration and quality control for fluorescence measurements (intensity per cell) are carried out using the Calibrites. […]

[2] = tested on: neutrophilic granulocytes; experiment: Granulocyte chemotaxis test: number of cells migrated through porous membrane, counted against beads by flow-through cytometry; format: cell-based, human; conditions: 5×10^−8 M fMLP vs negative control containing PBS; FIG. 3B
Method: as §1, §2

N-formyl-Met-Leu-Phe [fMLP]
decrease in the surface expression of the cell adhesion molecule LECAM-1 [1]: about one order of magnitude | number of neutrophilic granulocyte cells which have migrated through the membrane, in relation to constant number of beads [2]: marked increase
